We go through 27 compounds from US9890133B2 (priority 2011, dated 2018).

Each structure is given as a SMILES string. Values after ≈ are worked out from the molar mass of the structure shown.

In one data set the test system is Poliovirus 3. In words: microbe, parasite or virus in culture. The format is cell-based. To be noted: Enterovirus C, read-out: Poliovirus3 EC50.
A further data set in a line: in vitro. The note with it: human.

Broadly, the EC50 is the midpoint of the concentration-response curve. With `Cc1ccnc(C(=O)NC23C(=O)c4c(N)cccc4C2(O)Oc2cc(C(C)C)ccc23)c1` (centres unmarked) [Example 243, N-(1-Amino-4b-hydroxy-7-isopropyl-10-oxo-9b,10-dihydro-4bH-benzo[d]indeno[1,2-b]furan-9b-yl)-4-methylpicolinamide], in the data set on Poliovirus 3, the EC50 is < 0.01 µg/mL. Besides, the CC50 in “in vitro” is > 10 µg/mL; in “in vitro” (Picorana CC50), 7.36 µg/mL (≈ 17.1 µM).
For `CC(C)c1ccc2c(c1)OC1(O)c3cccc(N)c3C(=O)C21NC(=O)c1cc(C(F)(F)F)ccn1` (centres unmarked) [Example 244, N-(1-Amino-4b-hydroxy-7-isopropyl-10-oxo-9b,10-dihydro-4bH-benzo[d]indeno[1,2-b]furan-9b-yl)-4-(trifluoromethyl)picolinamide] the same measures were < 0.01 µg/mL, > 10 µg/mL and 15.7 µg/mL (≈ 32.5 µM).
For `CC(C)c1ccc2c(c1)OC1(O)c3cccc(N)c3C(=O)C21NC(=O)c1ccc(C#N)cn1` (centres unmarked) [Example 245, N-(1-Amino-4b-hydroxy-7-isopropyl-10-oxo-9b,10-dihydro-4bH-benzo[d]indeno[1,2-b]furan-9b-yl)-5-cyanopicolinamide], the EC50 in the data set on Poliovirus 3 is < 0.01 µg/mL. The CC50 was > 10 µg/mL in the data set “in vitro” and 8.47 µg/mL (≈ 19.2 µM) in the data set “in vitro” (Picorana CC50).
With `CC(C)c1ccc2c(c1)OC1(O)c3cccc(N)c3C(=O)C21NC(=O)c1ncccc1Cl` (centres unmarked) [Example 246, N-(1-Amino-4b-hydroxy-7-isopropyl-10-oxo-9b,10-dihydro-4bH-benzo[d]indeno[1,2-b]furan-9b-yl)-3-chloropicolinamide], in the data set with Poliovirus 3, the EC50 is < 0.01 µg/mL. Further, the CC50 is > 10 µg/mL in the data set “in vitro” and 9.84 µg/mL (≈ 21.9 µM) in “in vitro” (Picorana CC50).
On the same counts, the results for `CC(C)c1ccc2c(c1)OC1(O)c3cccc(N)c3C(=O)C21NC(=O)c1cc2ccccc2cn1` (centres unmarked) [Example 248, N-(1-Amino-4b-hydroxy-7-isopropyl-10-oxo-9b,10-dihydro-4bH-indeno[1,2-b]benzofuran-9b-yl)isoquinoline-3-carboxamide] are 0.027 µg/mL (≈ 0.058 µM), > 10 µg/mL and 4.99 µg/mL (≈ 10.7 µM).
As for `Cc1cc(C(=O)NC23C(=O)c4c(N)cccc4C2(O)Oc2cc(C(C)C)ccc23)ccn1` (centres unmarked) [Example 249, N-(1-Amino-4b-hydroxy-7-isopropyl-10-oxo-9b,10-dihydro-4bH-indeno[1,2-b]benzofuran-9b-yl)-2-methylisonicotinamide], the half-maximal effective concentration (EC50) in the data set with Poliovirus 3 was < 0.01 µg/mL. In addition, the CC50 in the data set “in vitro” is > 10 µg/mL.
On the same counts, the results for `CC(C)c1ccc2c(c1)OC1(O)c3cccc(N)c3C(=O)C21NC(=O)c1ccncc1F` (centres unmarked) [Example 250, N-(1-Amino-4b-hydroxy-7-isopropyl-10-oxo-9b,10-dihydro-4bH-indeno[1,2-b]benzofuran-9b-yl)-3-fluoroisonicotinamide] are < 0.01 µg/mL and > 10 µg/mL.
For `CC(C)c1ccc2c(c1)OC1(O)c3cccc(N)c3C(=O)C21NC(=O)c1ccncc1Cl` (centres unmarked) [Example 251, N-(1-Amino-4b-hydroxy-7-isopropyl-10-oxo-9b,10-dihydro-4bH-indeno[1,2-b]benzofuran-9b-yl)-3-chloroisonicotinamide] the same measures were < 0.01 µg/mL and > 10 µg/mL.
As for `CC(C)c1ccc2c(c1)OC1(O)c3cccc(N)c3C(=O)C21NC(=O)c1nccn1C` (centres unmarked) [Example 252, N-(1-Amino-4b-hydroxy-7-isopropyl-10-oxo-9b,10-dihydro-4bH-indeno[1,2-b]benzofuran-9b-yl)-1-methyl-1H-imidazole-2-carboxamide], the EC50 in the data set on Poliovirus 3 is < 0.01 µg/mL. Further, the CC50 amounted to 3.53 µg/mL (≈ 8.44 µM) in the data set “in vitro” and 3.64 µg/mL (≈ 8.7 µM) in the data set “in vitro” (Picorana CC50).
On to `CC(C)c1ccc2c(c1)OC1(O)c3cccc(N)c3C(=O)C21NC(=O)c1cccc[n+]1[O-]` (centres unmarked) [Example 253, 2-((1-Amino-4b-hydroxy-7-isopropyl-10-oxo-9b,10-dihydro-4bH-indeno[1,2-b]benzofuran-9b-yl)carbamoyl)pyridine 1-oxide], for which the EC50 with Poliovirus 3 was < 0.01 µg/mL. The CC50 in the data set “in vitro” was > 10 µg/mL.
`CC(C)c1ccc2c(c1)OC1(O)c3cccc(N)c3C(=O)C21NC(=O)c1cncc(F)c1` (centres unmarked) [Example 255, N-(1-Amino-4b-hydroxy-7-isopropyl-10-oxo-9b,10-dihydro-4bH-indeno[1,2-b]benzofuran-9b-yl)-5-fluoronicotinamide]: the concentration for a half-maximal effect (EC50) in the data set on Poliovirus 3 was < 0.01 µg/mL. In addition, the CC50 in “in vitro” was > 10 µg/mL.
For the compound `CC(C)c1ccc2c(c1)OC1(O)c3cccc(N)c3C(=O)C21NC(=O)c1cncc(O)c1` (centres unmarked) [Example 256, N-(1-Amino-4b-hydroxy-7-isopropyl-10-oxo-9b,10-dihydro-4bH-indeno[1,2-b]benzofuran-9b-yl)-5-hydroxynicotinamide], the concentration for a half-maximal effect (EC50) in the data set with Poliovirus 3 was < 0.01 µg/mL. Besides, the CC50 in the data set “in vitro” was > 10 µg/mL.
For `CC(C)c1ccc2c(c1)OC1(O)c3cccc(N)c3C(=O)C21NC(=O)c1ncccc1O` (centres unmarked) [Example 257, N-(1-Amino-4b-hydroxy-7-isopropyl-10-oxo-9b,10-dihydro-4bH-indeno[1,2-b]benzofuran-9b-yl)-3-hydroxypicolinamide] the same measures were 0.031 µg/mL (≈ 0.0719 µM) and > 10 µg/mL.
As for `Cc1ccncc1C(=O)NC12C(=O)c3c(N)cccc3C1(O)Oc1cc(C(C)C)ccc12` (centres unmarked) [Example 258, N-(1-Amino-4b-hydroxy-7-isopropyl-10-oxo-9b,10-dihydro-4bH-indeno[1,2-b]benzofuran-9b-yl)-4-methylnicotinamide], in the data set on Poliovirus 3, the concentration giving a half-maximal response (EC50) was 0.04 µg/mL (≈ 0.0931 µM). Also, the CC50 in “in vitro” is > 10 µg/mL.
On the same counts, the results for `Cc1cncc(C(=O)NC23C(=O)c4c(N)cccc4C2(O)Oc2cc(C(C)C)ccc23)c1` (centres unmarked) [Example 259, N-(1-Amino-4b-hydroxy-7-isopropyl-10-oxo-9b,10-dihydro-4bH-indeno[1,2-b]benzofuran-9b-yl)-5-methylnicotinamide] are < 0.01 µg/mL and > 10 µg/mL.
`Cc1cc2c(cc1C)C1(NC(=O)c3cccnc3)C(=O)c3c(N)cccc3C1(O)O2` (centres unmarked) [Example 260, N-(1-Amino-4b-hydroxy-7,8-dimethyl-10-oxo-9b,10-dihydro-4bH-indeno[1,2-b]benzofuran-9b-yl)nicotinamide]: in the data set with Poliovirus 3, the EC50 is 0.04 µg/mL (≈ 0.0996 µM). The CC50 in the data set “in vitro” is > 10 µg/mL.
For `COc1cncc(C(=O)NC23C(=O)c4c(N)cccc4C2(O)Oc2cc(C(C)C)ccc23)c1` (centres unmarked) [Example 261, N-(1-Amino-4b-hydroxy-7-isopropyl-10-oxo-9b,10-dihydro-4bH-indeno[1,2-b]benzofuran-9b-yl)-5-methoxynicotinamide] the same measures were < 0.01 µg/mL and > 10 µg/mL.
With `Cc1cc2c(cc1C)C1(NC(=O)c3ccc4ncccc4c3)C(=O)c3c(N)cccc3C1(O)O2` (centres unmarked) [Example 262, N-(1-Amino-4b-hydroxy-7,8-dimethyl-10-oxo-9b,10-dihydro-4bH-indeno[1,2-b]benzofuran-9b-yl)quinoline-6-carboxamide], the concentration for a half-maximal effect (EC50) with Poliovirus 3 came to 0.0124 µg/mL (≈ 0.0275 µM). Also, the CC50 in the data set “in vitro” was > 10 µg/mL.
Turning to `CC(C)c1ccc2c(c1)OC1(O)c3cccc(N)c3C(=O)C21NC(=O)c1ccc2ccccc2n1` (centres unmarked) [Example 263], the EC50 with Poliovirus 3 was found to be 0.039 µg/mL (≈ 0.0838 µM). Moreover, the CC50 was 5.4 µg/mL (≈ 11.6 µM) in the data set “in vitro” and 7.65 µg/mL (≈ 16.4 µM) in “in vitro” (Picorana CC50).
On the same counts, the results for `CC(C)c1ccc2c(c1)OC1(O)c3cccc(N)c3C(=O)C21NC(=O)c1cc2ccccc2[nH]1` (centres unmarked) [Example 265] are < 0.01 µg/mL, 4.4 µg/mL (≈ 9.7 µM) and 4.75 µg/mL (≈ 10.5 µM).
For `CC(C)c1ccc2c(c1)OC1(O)c3cccc(N)c3C(=O)C21NC(=O)c1nccc2ccccc12` (centres unmarked) [Example 266, N-(1-Amino-4b-hydroxy-7-isopropyl-10-oxo-9b,10-dihydro-4bH-benzo[d]indeno[1,2-b]furan-9b-yl)isoquinoline-1-carboxamide], the concentration for a half-maximal effect (EC50) in the data set with Poliovirus 3 is < 0.01 µg/mL. Besides, the CC50 in “in vitro” is > 10 µg/mL; in “in vitro” (Picorana CC50), 6.41 µg/mL (≈ 13.8 µM).
As to `CC(C)c1ccc2c(c1)OC1(O)c3cccc(N)c3C(=O)C21NC(=O)c1cc2ccccc2n1C` (centres unmarked) [Example 268, N-(1-Amino-4b-hydroxy-7-isopropyl-10-oxo-9b,10-dihydro-4bH-indeno[1,2-b]benzofuran-9b-yl)-1-methyl-1H-indole-2-carboxamide], the EC50 in the data set with Poliovirus 3 is 0.036 µg/mL (≈ 0.077 µM). For the same compound, the CC50 is > 10 µg/mL in the data set “in vitro” and 9.28 µg/mL (≈ 19.8 µM) in “in vitro” (Picorana CC50).
In the case of `Cc1nn(C)c2ncc(C(=O)NC34C(=O)c5c(N)cccc5C3(O)Oc3cc(C(C)C)ccc34)cc12` (centres unmarked) [Example 271, N-(1-Amino-4b-hydroxy-7-isopropyl-10-oxo-9b,10-dihydro-4bH-indeno[1,2-b]benzofuran-9b-yl)-1,3-dimethyl-1H-pyrazolo[3,4-b]pyridine-5-carboxamide], the EC50 in the data set on Poliovirus 3 was < 0.01 µg/mL. For the same compound, the CC50 in the data set “in vitro” is > 10 µg/mL.
For `CC(C)c1ccc2c(c1)OC1(O)c3cccc(N)c3C(=O)C21NC(=O)c1ccc2nccn2c1` (centres unmarked) [Example 272, N-(1-Amino-4b-hydroxy-7-isopropyl-10-oxo-9b,10-dihydro-4bH-indeno[1,2-b]benzofuran-9b-yl)imidazo[1,2-a]pyridine-6-carboxamide] the same measures were < 0.01 µg/mL and > 10 µg/mL.
For `CC(C)c1ccc2c(c1)OC1(O)c3cccc(N)c3C(=O)C21NC(=O)c1cc2ncccn2n1` (centres unmarked) [Example 273, N-(1-Amino-4b-hydroxy-7-isopropyl-10-oxo-9b,10-dihydro-4bH-indeno[1,2-b]benzofuran-9b-yl)pyrazolo[1,5-a]pyrimidine-2-carboxamide] the same measures were < 0.01 µg/mL and > 10 µg/mL.
In the case of `Cc1c(C(=O)NC23C(=O)c4c(N)cccc4C2(O)Oc2cc(C(C)C)ccc23)sc2ccccc12` (centres unmarked) [Example 274, N-(1-Amino-4b-hydroxy-7-isopropyl-10-oxo-9b,10-dihydro-4bH-indeno[1,2-b]benzofuran-9b-yl)-3-methylbenzo[b]thiophene-2-carboxamide], in the data set on Poliovirus 3, the concentration giving a half-maximal response (EC50) is 0.036 µg/mL (≈ 0.0743 µM). In addition, the CC50 in “in vitro” was > 10 µg/mL.
As for `CC(C)c1ccc2c(c1)OC1(O)c3cccc(N)c3C(=O)C21NC(=O)c1cnc2ccccc2n1` (centres unmarked) [Example 275, N-(1-Amino-4b-hydroxy-7-isopropyl-10-oxo-9b,10-dihydro-4bH-indeno[1,2-b]benzofuran-9b-yl)quinoxaline-2-carboxamide], the EC50 in the data set with Poliovirus 3 came out at 0.035 µg/mL (≈ 0.075 µM). Further, the CC50 came to 4.55 µg/mL (≈ 9.75 µM) in “in vitro” and 4.78 µg/mL (≈ 10.2 µM) in “in vitro” (Picorana CC50).
